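Assay format: 96-well plates, 48-hour exposure. TGI denotes the concentration required for complete inhibition of growth.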
Columns and labels:
Assay in all cases: NCI tumour cell line growth inhibition, 48 h
IGROV1 ovarian = system: IGROV1 ovarian
UO-31 renal = system: UO-31 renal
UACC-257 melanoma = system: UACC-257 melanoma
SR leukemia = system: SR leukemia
HCC-2998 colon = system: HCC-2998 colon
SF-295 CNS = system: SF-295 CNS
LXFL 529 NSCLC = system: LXFL 529 NSCLC
KM12 colon = system: KM12 colon
HL-60(TB) leukemia = system: HL-60(TB) leukemia
A549 NSCLC = system: A549 NSCLC
NCI-H460 lung = system: NCI-H460 lung
U251 CNS = system: U251 CNS
MOLT-4 leukemia = system: MOLT-4 leukemia
SF-268 CNS = system: SF-268 CNS
SNB-78 CNS = system: SNB-78 CNS
A498 renal = system: A498 renal
NCI-H522 lung = system: NCI-H522 lung
ACHN renal = system: ACHN renal
RPMI-8226 leukemia = system: RPMI-8226 leukemia
TK-10 renal = system: TK-10 renal
OVCAR-3 ovarian = system: OVCAR-3 ovarian
COLO 205 colon = system: COLO 205 colon
NCI-H226 lung = system: NCI-H226 lung
M19-MEL melanoma = system: M19-MEL melanoma
HT29 colon = system: HT29 colon
XF 498 CNS = system: XF 498 CNS
HCT-116 colon = system: HCT-116 colon
SNB-19 CNS = system: SNB-19 CNS
OVCAR-5 ovarian = system: OVCAR-5 ovarian
SK-MEL-28 melanoma = system: SK-MEL-28 melanoma
LOX IMVI melanoma = system: LOX IMVI melanoma
DMS 114 small cell lung = system: DMS 114 small cell lung
DMS 273 small cell lung = system: DMS 273 small cell lung
HOP-62 NSCLC = system: HOP-62 NSCLC
NCI-H23 lung = system: NCI-H23 lung
KM20L2 colon = system: KM20L2 colon
HCT-15 colon = system: HCT-15 colon
SN12C renal = system: SN12C renal
EKVX NSCLC = system: EKVX NSCLC
K-562 leukemia = system: K-562 leukemia
CCRF-CEM leukemia = system: CCRF-CEM leukemia
SW-620 colon = system: SW-620 colon
OVCAR-8 ovarian = system: OVCAR-8 ovarian
786-0 renal = system: 786-0 renal
SK-MEL-5 melanoma = system: SK-MEL-5 melanoma
RXF 393 renal = system: RXF 393 renal
OVCAR-4 ovarian = system: OVCAR-4 ovarian
DLD-1 colon = system: DLD-1 colon
MALME-3M melanoma = system: MALME-3M melanoma
SK-OV-3 ovarian = system: SK-OV-3 ovarian
SF-539 CNS = system: SF-539 CNS
UACC-62 melanoma = system: UACC-62 melanoma
SNB-75 CNS = system: SNB-75 CNS
M14 melanoma = system: M14 melanoma
CAKI-1 renal = system: CAKI-1 renal
SK-MEL-2 melanoma = system: SK-MEL-2 melanoma
HOP-18 NSCLC = system: HOP-18 NSCLC

COc1ccc(C2=NN(c3ccccc3)C[N+](c3ccc(C)cc3)=N2)cc1
TGI (IGROV1 ovarian): > 100 µM | TGI (UO-31 renal): > 100 µM | TGI (UACC-257 melanoma): > 100 µM | TGI (SR leukemia): > 100 µM | TGI (HCC-2998 colon): > 100 µM | TGI (SF-295 CNS): > 100 µM | TGI (LXFL 529 NSCLC): 38.5 µM | TGI (KM12 colon): > 10 µM | TGI (HL-60(TB) leukemia): > 100 µM | TGI (A549 NSCLC): > 100 µM | TGI (NCI-H460 lung): > 100 µM | TGI (U251 CNS): 45.3 µM | TGI (MOLT-4 leukemia): 88.5 µM | TGI (SF-268 CNS): > 100 µM | TGI (SNB-78 CNS): > 100 µM | TGI (A498 renal): > 100 µM | TGI (NCI-H522 lung): 26.5 µM | TGI (ACHN renal): > 100 µM | TGI (RPMI-8226 leukemia): 67.4 µM | TGI (TK-10 renal): > 100 µM | TGI (OVCAR-3 ovarian): 47.2 µM | TGI (COLO 205 colon): > 100 µM | TGI (NCI-H226 lung): > 100 µM | TGI (M19-MEL melanoma): > 100 µM | TGI (HT29 colon): > 100 µM | TGI (XF 498 CNS): 52.9 µM | TGI (HCT-116 colon): > 100 µM | TGI (SNB-19 CNS): > 100 µM | TGI (OVCAR-5 ovarian): 79.8 µM | TGI (SK-MEL-28 melanoma): > 100 µM | TGI (LOX IMVI melanoma): > 100 µM | TGI (DMS 114 small cell lung): 65.1 µM | TGI (DMS 273 small cell lung): > 10 µM | TGI (HOP-62 NSCLC): > 100 µM | TGI (NCI-H23 lung): > 100 µM | TGI (KM20L2 colon): > 100 µM | TGI (HCT-15 colon): > 100 µM | TGI (SN12C renal): > 100 µM | TGI (EKVX NSCLC): > 100 µM | TGI (K-562 leukemia): 53.9 µM | TGI (CCRF-CEM leukemia): 60.8 µM | TGI (SW-620 colon): 64.4 µM | TGI (OVCAR-8 ovarian): > 100 µM | TGI (786-0 renal): > 100 µM | TGI (SK-MEL-5 melanoma): > 10 µM | TGI (RXF 393 renal): 57.9 µM | TGI (OVCAR-4 ovarian): 43.3 µM | TGI (DLD-1 colon): > 100 µM | TGI (MALME-3M melanoma): > 100 µM

Cc1cccc(-n2c(N)c(-c3nc4ccccc4[nH]3)sc2=S)c1
TGI (IGROV1 ovarian): 78 µM | TGI (UO-31 renal): 87.8 µM | TGI (UACC-257 melanoma): 67.1 µM | TGI (SK-OV-3 ovarian): 91.7 µM | TGI (SF-295 CNS): 68.1 µM | TGI (LXFL 529 NSCLC): 53.4 µM | TGI (KM12 colon): 52.2 µM | TGI (HL-60(TB) leukemia): 64 µM | TGI (A549 NSCLC): 71.9 µM | TGI (SF-539 CNS): 37 µM | TGI (UACC-62 melanoma): 78.1 µM | TGI (SNB-75 CNS): > 100 µM | TGI (U251 CNS): 43.2 µM | TGI (MOLT-4 leukemia): 54.6 µM | TGI (SF-268 CNS): > 100 µM | TGI (A498 renal): > 100 µM | TGI (NCI-H522 lung): 75.7 µM | TGI (ACHN renal): 99 µM | TGI (RPMI-8226 leukemia): 57.4 µM | TGI (TK-10 renal): 68.5 µM | TGI (OVCAR-3 ovarian): 62.1 µM | TGI (COLO 205 colon): 51.8 µM | TGI (NCI-H226 lung): 73.9 µM | TGI (M19-MEL melanoma): 64 µM | TGI (HT29 colon): 56.6 µM | TGI (SNB-19 CNS): > 100 µM | TGI (OVCAR-5 ovarian): > 100 µM | TGI (SK-MEL-28 melanoma): > 100 µM | TGI (LOX IMVI melanoma): 58 µM | TGI (DMS 114 small cell lung): 57.3 µM | TGI (DMS 273 small cell lung): 41.7 µM | TGI (M14 melanoma): 48.4 µM | TGI (CAKI-1 renal): 90.5 µM | TGI (HOP-62 NSCLC): 78.9 µM | TGI (SK-MEL-2 melanoma): 62.3 µM | TGI (NCI-H23 lung): > 100 µM | TGI (HCT-15 colon): 62.3 µM | TGI (SN12C renal): 86.9 µM | TGI (EKVX NSCLC): 82.7 µM | TGI (K-562 leukemia): > 100 µM | TGI (CCRF-CEM leukemia): > 100 µM | TGI (SW-620 colon): 99.2 µM | TGI (OVCAR-8 ovarian): 72 µM | TGI (HOP-18 NSCLC): > 100 µM | TGI (786-0 renal): 54.1 µM | TGI (SK-MEL-5 melanoma): 46.7 µM | TGI (RXF 393 renal): 72.9 µM | TGI (OVCAR-4 ovarian): > 100 µM | TGI (DLD-1 colon): 80.1 µM | TGI (MALME-3M melanoma): 74.4 µM

Source: PubChem BioAssay (NCI)
